From PubChem BioAssay AID1259407 (Chemical Carcinogenesis Research Information System (CCRIS), 2018)
Calls of active or inactive are those of the source. No rule for the calls is given here.

System: CCRIS mutagenicity, Ames/micronucleus/aberration tests
Experiment: CCRIS mutagenicity studies
[1] = Test System: AMES SALMONELLA TYPHIMURIUM, Strain/Indicator: TA98, Metabolic Activation: RAT, LIVER, S-9, AROCLOR 1254, Method: STANDARD PLATE
[2] = Test System: AMES SALMONELLA TYPHIMURIUM, Strain/Indicator: TA100, Metabolic Activation: RAT, LIVER, S-9, AROCLOR 1254, Method: STANDARD PLATE
[3] = Test System: AMES SALMONELLA TYPHIMURIUM, Strain/Indicator: TA1535, Metabolic Activation: RAT, LIVER, S-9, AROCLOR 1254, Method: STANDARD PLATE
[4] = Test System: AMES SALMONELLA TYPHIMURIUM, Strain/Indicator: TA1538, Metabolic Activation: RAT, LIVER, S-9, AROCLOR 1254, Method: STANDARD PLATE
[5] = Test System: AMES SALMONELLA TYPHIMURIUM, Strain/Indicator: TA100, Metabolic Activation: NONE, Method: STANDARD PLATE
[6] = Test System: AMES SALMONELLA TYPHIMURIUM, Strain/Indicator: TA98, Metabolic Activation: NONE, Method: PREINCUBATION
[7] = Test System: AMES SALMONELLA TYPHIMURIUM, Strain/Indicator: TA100, Metabolic Activation: NONE, Method: PREINCUBATION
[8] = Test System: AMES SALMONELLA TYPHIMURIUM, Strain/Indicator: TA1537, Metabolic Activation: NONE, Method: STANDARD PLATE
[9] = Test System: AMES SALMONELLA TYPHIMURIUM, Strain/Indicator: TA1538, Metabolic Activation: NONE, Method: STANDARD PLATE
[10] = Test System: AMES SALMONELLA TYPHIMURIUM, Strain/Indicator: TA98, Metabolic Activation: HAMSTER, LIVER, S-9, AROCLOR 1254, Method: STANDARD PLATE
[11] = Test System: AMES SALMONELLA TYPHIMURIUM, Strain/Indicator: TA98, Metabolic Activation: NONE, Method: STANDARD PLATE

`CC(C)CC(NC(=O)COc1ccc(Cl)cc1Cl)C(=O)O` (centres undefined) was tested, and the mutagenic call (Test System: AMES SALMONELLA TYPHIMURIUM, Strain/Indicator: TA97, Metabolic Activation: RAT, LIVER, S-9, AROCLOR 1254, Method: STANDARD PLATE) was “inactive; negative”, the mutagenic call (Test System: AMES SALMONELLA TYPHIMURIUM, Strain/Indicator: TA97, Metabolic Activation: WOODCHUCK, LIVER, S-9, 3-METHYLCHOLANTHRENE, Method: STANDARD PLATE) was “inactive; negative” and the mutagenic call [1] was “inactive; negative”. For the same compound, the mutagenic call (Test System: AMES SALMONELLA TYPHIMURIUM, Strain/Indicator: TA98, Metabolic Activation: WOODCHUCK, LIVER, S-9, 3-METHYLCHOLANTHRENE, Method: STANDARD PLATE) was “inactive; negative”, the mutagenic call [2] was “inactive; negative” and the mutagenic call (Test System: AMES SALMONELLA TYPHIMURIUM, Strain/Indicator: TA100, Metabolic Activation: WOODCHUCK, LIVER, S-9, 3-METHYLCHOLANTHRENE, Method: STANDARD PLATE) was “inactive; negative”. For the same compound, the mutagenic call [3] was “inactive; negative”, the mutagenic call (Test System: AMES SALMONELLA TYPHIMURIUM, Strain/Indicator: TA1535, Metabolic Activation: WOODCHUCK, LIVER, S-9, 3-METHYLCHOLANTHRENE, Method: STANDARD PLATE) was “inactive; negative” and the mutagenic call [4] was “inactive; negative”. The mutagenic call (Test System: AMES SALMONELLA TYPHIMURIUM, Strain/Indicator: TA1538, Metabolic Activation: WOODCHUCK, LIVER, S-9, 3-METHYLCHOLANTHRENE, Method: STANDARD PLATE) was “inactive; negative”.
With `O=S(=O)(Cc1ccccc1)N1[C@@H]2c3ccccc3-c3ccccc3[C@@H]21` (some centres undefined) the mutagenic call [5] was “active; positive”.
`CCCOc1cc2c(c3ccc4ccccc4c13)CCC2=O` was tested, and the mutagenic call [2] was “inactive; negative”.
With `O.O.O=C([O-])C(=O)[O-].O=C([O-])C(=O)[O-].[K+].[K+].[Pt+2]` the mutagenic call [6] was “inactive; negative”, the mutagenic call (Test System: AMES SALMONELLA TYPHIMURIUM, Strain/Indicator: TA98, Metabolic Activation: RAT, LIVER, S-9, AROCLOR 1254, Method: PREINCUBATION) was “inactive; negative” and the mutagenic call [7] was “inactive; negative”. The mutagenic call (Test System: AMES SALMONELLA TYPHIMURIUM, Strain/Indicator: TA100, Metabolic Activation: RAT, LIVER, S-9, AROCLOR 1254, Method: PREINCUBATION) was “inactive; negative”.
For `C#CCOCCn1cc[n+](C)c1/C=N/O`, the mutagenic call (Test System: AMES SALMONELLA TYPHIMURIUM, Strain/Indicator: TA97, Metabolic Activation: NONE, Method: STANDARD PLATE) was “inactive; negative”, the mutagenic call (Test System: AMES SALMONELLA TYPHIMURIUM, Strain/Indicator: TA97, Metabolic Activation: S-9, Method: STANDARD PLATE) was “inactive; negative” and the mutagenic call [5] was “inactive; negative”. For the same compound, the mutagenic call (Test System: AMES SALMONELLA TYPHIMURIUM, Strain/Indicator: TA100, Metabolic Activation: S-9, Method: STANDARD PLATE) was “inactive; negative”, the mutagenic call (Test System: AMES SALMONELLA TYPHIMURIUM, Strain/Indicator: TA104, Metabolic Activation: NONE, Method: STANDARD PLATE) was “inactive; negative” and the mutagenic call (Test System: AMES SALMONELLA TYPHIMURIUM, Strain/Indicator: TA104, Metabolic Activation: S-9, Method: STANDARD PLATE) was “inactive; negative”. The mutagenic call [8] was “inactive; negative”, the mutagenic call (Test System: AMES SALMONELLA TYPHIMURIUM, Strain/Indicator: TA1537, Metabolic Activation: S-9, Method: STANDARD PLATE) was “inactive; negative” and the mutagenic call [9] was “inactive; negative”. For the same compound, the mutagenic call (Test System: AMES SALMONELLA TYPHIMURIUM, Strain/Indicator: TA1538, Metabolic Activation: S-9, Method: STANDARD PLATE) was “inactive; negative”.
In the case of `CCN(Cc1cccc(S(=O)(=O)O)c1)c1ccc(C(=C2C=CC(=[N+](CC)Cc3cccc(S(=O)(=O)O)c3)C=C2)c2ccccc2S(=O)(=O)[O-])cc1`, the mutagenic call (End Point: IN VIVO MICRONUCLEUS, Test System: BONE MARROW POLYCHROMATIC ERYTHROCYTES, Species: MOUSE, Strain/Sex: DDY/MALE, Route: IP) is reported as “inactive; negative”, the mutagenic call [10] is reported as “active; positive” and the mutagenic call (Test System: AMES SALMONELLA TYPHIMURIUM, Strain/Indicator: TA98, Metabolic Activation: HAMSTER, LIVER, S-9, Method: PREINCUBATION (PRIVAL METHOD)) is reported as “active; positive”. The mutagenic call [6] was “inactive; negative”, the mutagenic call (Test System: AMES SALMONELLA TYPHIMURIUM, Strain/Indicator: TA98, Metabolic Activation: S-9, Method: PREINCUBATION) was “inactive; negative” and the mutagenic call (Test System: AMES SALMONELLA TYPHIMURIUM, Strain/Indicator: TA100, Metabolic Activation: HAMSTER, LIVER, S-9, Method: PREINCUBATION (PRIVAL METHOD)) was “active; positive”. The mutagenic call [7] was “inactive; negative”, the mutagenic call (Test System: AMES SALMONELLA TYPHIMURIUM, Strain/Indicator: TA100, Metabolic Activation: S-9, Method: PREINCUBATION) was “inactive; negative” and the mutagenic call (Test System: AMES SALMONELLA TYPHIMURIUM, Strain/Indicator: TA1538, Metabolic Activation: RAT, LIVER, S-9, AROCLOR 1254, HAMSTER, LIVER, S-9, AROCLOR 1254, Method: STANDARD PLATE) was “active; positive”. The mutagenic call (Test System: MOUSE LYMPHOMA, Strain/Indicator: L5178Y (TK+/TK-), Metabolic Activation: RAT, LIVER, S-9, AROCLOR 1254, Method: SUSPENSION/PLATE) was “active; positive. reevaluation of results: positive” and the mutagenic call (Test System: Mouse lymphoma, Strain/Indicator: L5178Y (tk+/tk-), Metabolic Activation: None, Method: Suspension/plate) was “inactive; negative”.
With `Oc1c2ccccc2c2ccc3cccc4ccc1c2c43` the mutagenic call (Test System: CHINESE HAMSTER V-79, Strain/Indicator: V-79/8-AZAGUANINE, Metabolic Activation: NONE, Method: STANDARD PLATE) was “active; positive”.
In the case of `Cc1cc2ncccc2c2nc(N=[N+]=[N-])n(C)c12`, the mutagenic call (Test System: AMES SALMONELLA TYPHIMURIUM, Strain/Indicator: TA98(1,8-DNP6), Metabolic Activation: NONE, Method: STANDARD PLATE) is reported as “active; positive” and the mutagenic call [11] is reported as “active; positive”.
For `CC(O)CCC(=O)c1ccoc1` (centres undefined), the mutagenic call [10] was “inactive; negative”, the mutagenic call [11] was “inactive; negative” and the mutagenic call [1] was “inactive; negative”. The mutagenic call (Test System: AMES SALMONELLA TYPHIMURIUM, Strain/Indicator: TA100, Metabolic Activation: HAMSTER, LIVER, S-9, AROCLOR 1254, Method: STANDARD PLATE) was “inactive; negative”, the mutagenic call [5] was “inactive; negative” and the mutagenic call [2] was “inactive; negative”. The mutagenic call (Test System: AMES SALMONELLA TYPHIMURIUM, Strain/Indicator: TA1535, Metabolic Activation: HAMSTER, LIVER, S-9, AROCLOR 1254, Method: STANDARD PLATE) was “inactive; negative”, the mutagenic call (Test System: AMES SALMONELLA TYPHIMURIUM, Strain/Indicator: TA1535, Metabolic Activation: NONE, Method: STANDARD PLATE) was “inactive; negative” and the mutagenic call [3] was “inactive; negative”. For the same compound, the mutagenic call (Test System: AMES SALMONELLA TYPHIMURIUM, Strain/Indicator: TA1537, Metabolic Activation: HAMSTER, LIVER, S-9, AROCLOR 1254, Method: STANDARD PLATE) was “inactive; negative”, the mutagenic call [8] was “inactive; negative” and the mutagenic call (Test System: AMES SALMONELLA TYPHIMURIUM, Strain/Indicator: TA1537, Metabolic Activation: RAT, LIVER, S-9, AROCLOR 1254, Method: STANDARD PLATE) was “inactive; negative”. For the same compound, the mutagenic call (Test System: AMES SALMONELLA TYPHIMURIUM, Strain/Indicator: TA1538, Metabolic Activation: HAMSTER, LIVER, S-9, AROCLOR 1254, Method: STANDARD PLATE) was “inactive; negative”, the mutagenic call [9] was “inactive; negative” and the mutagenic call [4] was “inactive; negative”.
With `COC(=O)Nc1nc2ccc(C(=O)c3ccccc3)cc2[nH]1` the mutagenic call [11] was “inactive; negative”, the mutagenic call [1] was “active; positive” and the mutagenic call [5] was “inactive; negative”.
With `CCCCC/C=C\C/C=C\C/C=C\C/C=C\CCCC(=O)O` the mutagenic call (Test System: CHINESE HAMSTER V-79, Strain/Indicator: V-79/6-THIOGUANINE, Metabolic Activation: NONE) was “active; positive”.
